According to patent publication US5393772A, “Use of, and method of treatment using, hydroxycarbazole compounds for inhibition of smooth muscle migration and proliferation” (Boehringer Mannheim Pharmaceuticals Corporation, priority 1993, dated 1995):

Tested on: rat aortic vascular smooth muscle cells
Assay: PDGF-induced migration of rat aortic vascular smooth muscle cells (modified Boyden chamber, Transwell)
Assay type: cell-based
Settings: for IC50: Rattus norvegicus, PDGF-induced migration, 24 h at 37° C, by position of OH group
Procedure: The procedure for assessing vascular smooth muscle cell migration was described previously in Hidaka, Y., Eda, T., Yonemoto, M. & Kamei, T. (1992) Atheroscler. 95, 87-94. Briefly, rat aortic vascular smooth muscle cells (passage 3) were suspended (1×10^6 cells/ml) in serum free DMEM supplemented with 0.2% (w/v) bovine serum albumin (Sigma). Migration assays were performed in modified Boyden chambers using Transwell (Costar, Cambridge, Mass.) cell culture chambers with a polycarbonate 8μm pore size membrane. PDGF was dissolved in DMEM and placed in the lower compartment in the presence, or absence, of compounds of Formula (I) wherein R1, R2, R3, R5, R6 or R8 are independently OH. Vascular smooth muscle cells (5×10^5) were then loaded in the upper compartment and incubated for 24 h at 37° C. in a humidified atmosphere containing 5% CO2. Non-migrated cells on the upper surface were scraped away gently and washed three times with PBS. Filters were fixed in methanol and stained with Giemsa. The number of vascular smooth muscle cells per 100×high power field (HPF) that had migrated to the lower surface of the filters was determined microscopically. Four HPFs were counted per filter. Experiments were performed either in duplicate or triplicate.
PDGF produced concentration-dependent increases in the migration of rat vascular smooth muscle cells with maximal effect obtained at a concentration of 1 nM. […] IC50 values for compounds of Formula (I) wherein R1, R2, R3, R5, R6 or R8 are independently OH were as follows.

Compound	IC50 [nM]	concentration of maximal effect on migration (PDGF as chemoattractant, without inhibitor) [nM]
COc1cc(O)ccc1OCCNCC(O)COc1cccc2[nH]c3ccccc3c12 (stereo not shown) [R1]	990	
COc1ccc(O)cc1OCCNCC(O)COc1cccc2[nH]c3ccccc3c12 (stereo not shown) [R2]	410	
COc1ccccc1OCCNCC(O)COc1c(O)ccc2[nH]c3ccccc3c12 (stereo not shown) [R3]	200	
COc1ccccc1OCCNCC(O)COc1ccc(O)c2[nH]c3ccccc3c12 (stereo not shown) [R5]	180	
PDGF		1

Continued by falling IC50, values first:

IC50 [nM]	Compound	concentration of maximal effect on migration (PDGF as chemoattractant, without inhibitor) [nM]
1720	COc1ccccc1OCCNCC(O)COc1cccc2[nH]c3c(O)cccc3c12 (stereo not shown) [R6]	
360	COc1ccccc1OCCNCC(O)COc1cccc2[nH]c3ccc(O)cc3c12 (stereo not shown) [R8]	
